Assay: recombinant barcode read abundance after kanamycin selection (control-corrected) (log10(CPM+1)); higher = more efficient recombination; sequences stand for … in AGTGCAGAGAAAATCGGCCAGTTTTCTCTGCCTGCAGTCCGCATGCCGT…AGATTTATGCAGCGGACTGCCTTTCTCCCAAAGTGATAAACCGGACAGTATCATGGACCGGTTTTCCCGGTAATCCGTATTTGCAAGGTTGGTTTCACT; site = the 11-nt target
Description: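 Pooled E. coli target-specificity screen for the IS621 bridge recombinase. Each library plasmid pairs an 11-nt target (CT core) with a bridge RNA whose target-binding loop (9-nt LTG + 4-nt RTG) is reprogrammed; the rest of the 177-nt WT IS621 bridge RNA scaffold is fixed. The plasmid is co-electroporated with a WT donor plasmid; recombinase is induced with 0.1 mM IPTG and recombinants are selected on kanamycin. Recombinant barcodes are sequenced, converted to CPM, averaged over two biological replicates and corrected by the unselected control CPM. Molecule = full bridge RNA written as DNA: LTG = specificity nt 1-9, RTG = reverse complement of specificity nt 8-11, in the WT scaffold.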
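Note: IS621 recombinase and bridge RNA in Escherichia coli cells.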

| Sequence | recombinant barcode read abundance (log10) |
| --- | --- |
| AAGGTGTCTTGGGTTCTAACCTGTTGCCT (site AAAGTGTCTAG) | 1.97 |
| AAGGTGTCTTGGGTTCTAACCTGTTGCCT (site AACGTGTCTAG) | 0.736 |
| AAGGTGTCTTGGGTTCTAACCTGTTGCCT (site AAGGTGTCTAG) | 3.29 |
| AAGGTGTCTTGGGTTCTAACCTGTTGCCT (site AATGTGTCTAG) | 0.45 |
| AAGTCCACTTGGGTTCTAACCTGTTGCTT (site AAGTCCACTAA) | 0.856 |
| AAGTCCACTTGGGTTCTAACCTGTTGCTT (site TAGTCCACTTA) | 0.093 |
| AAGTGGTCTTGGGTTCTAACCTGTTGCTA (site AAGTGGTCTTA) | 1.46 |
| AAGTGGTCTTGGGTTCTAACCTGTTGCTA (site TGAGTCCCTCT) | 0 |
| AAGTTGTCTTGGGTTCTAACCTGTTGCGT (site AAGTTGTCTAC) | 2.77 |
| AAGTTGTCTTGGGTTCTAACCTGTTGCGT (site CAGTTGTCTAG) | 0.0897 |
| AATACCACTTGGGTTCTAACCTGTTGCCT (site AATACCACTAG) | 0.576 |
| AATACCACTTGGGTTCTAACCTGTTGCCT (site AATCGCACTAG) | 0.186 |
| AATAGGACTTGGGTTCTAACCTGTTGCGC (site AATAGGACTGC) | 1.76 |
| AATAGGACTTGGGTTCTAACCTGTTGCGC (site ATTAGGACTTC) | 0.0105 |
| AATATAGCTTGGGTTCTAACCTGTTGCTA (site AATATAGCTTA) | 0.0685 |
| AATATAGCTTGGGTTCTAACCTGTTGCTA (site TTCCCCACTAG) | 0 |
| AATCGAGCTTGGGTTCTAACCTGTTGCGG (site AATCGAGCTCC) | 1.82 |
| AATCGAGCTTGGGTTCTAACCTGTTGCGG (site TCCGCTTCTAA) | 0.0864 |
| AATCTCCCTTGGGTTCTAACCTGTTGCCT (site AATATGCCTAG) | 0.298 |
| AATCTCCCTTGGGTTCTAACCTGTTGCCT (site AATCTCCCTAG) | 1.07 |
| AATGAATCTTGGGTTCTAACCTGTTGCCT (site AATGAATCTAG) | 0.312 |

| Sequence | recombinant barcode read abundance (log10) |
| --- | --- |
| AATGAATCTTGGGTTCTAACCTGTTGCCT (site AATGCATCTAG) | 0.255 |
| AATGAATCTTGGGTTCTAACCTGTTGCCT (site AATGGATCTAG) | 0.53 |
| AATGAATCTTGGGTTCTAACCTGTTGCCT (site AATGTATCTAG) | 0.301 |
| AATGGGCCTTGGGTTCTAACCTGTTGCCT (site AATGGGACTAG) | 0.131 |
| AATGGGCCTTGGGTTCTAACCTGTTGCCT (site AATGGGCCTAG) | 0.273 |
| AATGGGCCTTGGGTTCTAACCTGTTGCCT (site AATGGGGCTAG) | 0.179 |
| AATGGGCCTTGGGTTCTAACCTGTTGCCT (site AATGGGTCTAG) | 0.201 |
| AATGGGGCTTGGGTTCTAACCTGTTGCTG (site AATGGGGCTCA) | 1.15 |
| AATGGGGCTTGGGTTCTAACCTGTTGCTG (site TATGGAGCTCA) | 0.0813 |
| AATGTACCTTGGGTTCTAACCTGTTGCCT (site AATGTACCTAG) | 1.89 |
| AATGTACCTTGGGTTCTAACCTGTTGCCT (site CATGTACCTAG) | 0.45 |
| AATGTACCTTGGGTTCTAACCTGTTGCCT (site GATGTACCTAG) | 0.0545 |
| AATGTACCTTGGGTTCTAACCTGTTGCCT (site TATGTACCTAG) | 1.27 |
| AATGTGTCTTGGGTTCTAACCTGTTGCCT (site AAAGTGTCTAG) | 0.663 |
| AATGTGTCTTGGGTTCTAACCTGTTGCCT (site AACGTGTCTAG) | 1.47 |
| AATGTGTCTTGGGTTCTAACCTGTTGCCT (site AAGGTGTCTAG) | 1.01 |
| AATGTGTCTTGGGTTCTAACCTGTTGCCT (site AATGTGTCTAG) | 2.59 |
| AATTAGACTTGGGTTCTAACCTGTTGCCT (site AATTAGACTAG) | 1.12 |
| AATTAGACTTGGGTTCTAACCTGTTGCCT (site CATTAGACTAG) | 0.152 |
| AATTAGACTTGGGTTCTAACCTGTTGCCT (site GATTAGACTAG) | 0.226 |
| AATTAGACTTGGGTTCTAACCTGTTGCCT (site TATTAGACTAG) | 0.125 |

| Sequence | recombinant barcode read abundance (log10) |
| --- | --- |
| AATTAGCCTTGGGTTCTAACCTGTTGCCT (site AATTAGCCTAG) | 0.488 |
| AATTAGCCTTGGGTTCTAACCTGTTGCCT (site GTGAGCACTTA) | 0.185 |
| AATTGGCCTTGGGTTCTAACCTGTTGCTT (site AATTGGCCTAA) | 0.344 |
| AATTGGCCTTGGGTTCTAACCTGTTGCTT (site GATAGGCCTAA) | 0.37 |
| AATTTAGCTTGGGTTCTAACCTGTTGCCT (site AATTAAGCTAG) | 0.172 |
| AATTTAGCTTGGGTTCTAACCTGTTGCCT (site AATTCAGCTAG) | 0.169 |
| AATTTAGCTTGGGTTCTAACCTGTTGCCT (site AATTGAGCTAG) | 0.0396 |
| AATTTAGCTTGGGTTCTAACCTGTTGCCT (site AATTTAGCTAG) | 0.244 |
| ACAAAACCTTGGGTTCTAACCTGTTGCCT (site ACAAAACCTAG) | 0.171 |
| ACAAAACCTTGGGTTCTAACCTGTTGCCT (site ACAAACCCTAG) | 0.461 |
| ACAAAACCTTGGGTTCTAACCTGTTGCCT (site ACAAAGCCTAG) | 0.0848 |
| ACAAAACCTTGGGTTCTAACCTGTTGCCT (site ACAAATCCTAG) | 0.0655 |
| ACAAAAGCTTGGGTTCTAACCTGTTGCGG (site ACAAAAGCTCC) | 1.59 |
| ACAAAAGCTTGGGTTCTAACCTGTTGCGG (site ACAAAGGCTCC) | 0.514 |
| ACAAAGACTTGGGTTCTAACCTGTTGCCT (site ACAAAGACTAG) | 0.847 |
| ACAAAGACTTGGGTTCTAACCTGTTGCCT (site ACAAGGGCTAG) | 0.0359 |
| ACAACCACTTGGGTTCTAACCTGTTGCCT (site ACAACCACTAG) | 0.235 |
| ACAACCACTTGGGTTCTAACCTGTTGCCT (site ACAACGACTAG) | 0.0258 |
| ACAACCTCTTGGGTTCTAACCTGTTGCCG (site ACAACCTCTCG) | 1.23 |
| ACAACCTCTTGGGTTCTAACCTGTTGCCG (site TAGGGTACTGC) | 0 |
| ACAAGCACTTGGGTTCTAACCTGTTGCCT (site ACAAGCACTAG) | 1.46 |

| Sequence | recombinant barcode read abundance (log10) |
| --- | --- |
| ACAAGCACTTGGGTTCTAACCTGTTGCCT (site ACCATCACTAG) | 0.2 |
| ACAAGGGCTTGGGTTCTAACCTGTTGCCT (site ACAAAGACTAG) | 0.261 |
| ACAAGGGCTTGGGTTCTAACCTGTTGCCT (site ACAAGGGCTAG) | 0.547 |
| ACAAGTCCTTGGGTTCTAACCTGTTGCGG (site ACAAGTCCTCC) | 1.74 |
| ACAAGTCCTTGGGTTCTAACCTGTTGCGG (site ATAAGTCCTTC) | 0.0466 |
| ACAATGTCTTGGGTTCTAACCTGTTGCGG (site ACAATGTCTCC) | 1.27 |
| ACAATGTCTTGGGTTCTAACCTGTTGCGG (site ACACTGTCTCC) | 0.148 |
| ACAATGTCTTGGGTTCTAACCTGTTGCGG (site ACAGTGTCTCC) | 0.192 |
| ACAATGTCTTGGGTTCTAACCTGTTGCGG (site ACATTGTCTCC) | 0.427 |
| ACACACTCTTGGGTTCTAACCTGTTGCTG (site ACACACTCTCA) | 1.97 |
| ACACACTCTTGGGTTCTAACCTGTTGCTG (site ACACTCCCTCA) | 0.0463 |
| ACACCACCTTGGGTTCTAACCTGTTGCCT (site AAACCACCTAG) | 0.585 |
| ACACCACCTTGGGTTCTAACCTGTTGCCT (site ACACCACCTAG) | 0.0741 |
| ACACCACCTTGGGTTCTAACCTGTTGCCT (site AGACCACCTAG) | 0.179 |
| ACACCACCTTGGGTTCTAACCTGTTGCCT (site ATACCACCTAG) | 0.0171 |
| ACACGCCCTTGGGTTCTAACCTGTTGCAC (site ACACGCCCTGT) | 0.333 |
| ACACGCCCTTGGGTTCTAACCTGTTGCAC (site AGACTCCCTGT) | 0.0104 |
| ACACGGCCTTGGGTTCTAACCTGTTGCCG (site ACACGGCCTCG) | 0.428 |
| ACACGGCCTTGGGTTCTAACCTGTTGCCG (site TAGTACGCTAA) | 0.145 |

Source: the supplement of paper PMC11208160
